From patent publication US20220324815A1, “2-PHENOXY-PYRIMIDINE DERIVATIVES AS HERBICIDAL COMPOUNDS” (SYNGENTA CROP PROTECTION AG, priority 2019, published 2022)

What was measured:
Format in all cases: in vivo
Settings in all cases: 250 g/ha unless otherwise stated, evaluated after 13 days, five-point scale
[1] = tested on: Echinochloa crus-galli (ECHCG); test: Test 1 glasshouse herbicide test, post-emergence application (Table B1)
In short: (§1)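 Score is % phytotoxicity after 13 days, binned 1 (0–20%) to 5 (81–100%). Compound given at 250 g/ha unless stated, as acetone/water (50:50) spray with 0.5% Tween 20, one day post-sowing (pre-emergence) or after 8 days' growth (post-emergence); glasshouse at 24/16 °C day/night, 14 h light, 65% humidity.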

Setaria faberi (SETFA) [2] = test: as above
In short: as §1

[3] = tested on: Ipomoea hederacea (IPOHE); test: as above
In short: as §1

[4] = tested on: Amaranthus retoflexus (AMARE); test: as above
In short: as §1

[5] = tested on: Echinochloa crus-galli (ECHCG); test: Test 1 glasshouse herbicide test, pre-emergence application (Table B2)
In short: as §1

Setaria faberi (SETFA) [6] = test: as above
In short: as §1

[7] = tested on: Ipomoea hederacea (IPOHE); test: as above
In short: as §1

[8] = tested on: Amaranthus retoflexus (AMARE); test: as above
In short: as §1

Compound | % phytotoxicity ECHCG, post-emergence application [1] | % phytotoxicity SETFA, post-emergence application (Setaria faberi (SETFA) [2]) | % phytotoxicity IPOHE, post-emergence application [3] | % phytotoxicity AMARE, post-emergence application [4] | % phytotoxicity ECHCG, pre-emergence application [5] | % phytotoxicity SETFA, pre-emergence application (Setaria faberi (SETFA) [6]) | % phytotoxicity IPOHE, pre-emergence application [7] | % phytotoxicity AMARE, pre-emergence application [8]
N#Cc1cccc(Oc2ncc(Cl)cn2)c1[S+]([O-])CCCC(F)F (stereo not shown) [Compound A101] | 4 (4=61 to 80%) | 4 (4=61 to 80%) | 4 (4=61 to 80%) | 5 (5=81 to 100%) | 5 (5=81 to 100%) | 5 (5=81 to 100%) | 5 (5=81 to 100%) | 5 (5=81 to 100%)
N#Cc1cccc(Oc2ncc(Cl)cn2)c1S(=O)(=O)CCCC(F)F [Compound A102] | 4 (4=61 to 80%) | 4 (4=61 to 80%) | 4 (4=61 to 80%) | 5 (5=81 to 100%) | 5 (5=81 to 100%) | 5 (5=81 to 100%) | 5 (5=81 to 100%) | 5 (5=81 to 100%)
O=S(=O)(CCCC(F)F)c1c(Cl)cccc1Oc1ncc(Cl)cn1 [Compound A103] | 1 (1=0 to 20%) | 1 (1=0 to 20%) | 2 (2=21 to 40%) | 4 (4=61 to 80%) | 2 (2=21 to 40%) | 2 (2=21 to 40%) | 4 (4=61 to 80%) | 4 (4=61 to 80%)
[O-][S+](CCCC(F)F)c1c(Cl)cccc1Oc1ncc(Cl)cn1 (stereo not shown) [Compound A104] | 5 (5=81 to 100%) | 5 (5=81 to 100%) | 5 (5=81 to 100%) | 5 (5=81 to 100%) | 5 (5=81 to 100%) | 5 (5=81 to 100%) | 5 (5=81 to 100%) | 5 (5=81 to 100%)
FC(F)CCCSc1c(Cl)cccc1Oc1ncc(Cl)cn1 [Compound A105, 5-chloro-2-[3-chloro-2-(4,4-difluorobutylsulfanyl)phenoxy]pyrimidine] | 5 (5=81 to 100%) | 5 (5=81 to 100%) | 4 (4=61 to 80%) | 5 (5=81 to 100%) | 5 (5=81 to 100%) | 5 (5=81 to 100%) | 4 (4=61 to 80%) | 5 (5=81 to 100%)
N#Cc1cccc(Oc2ncc(Cl)cn2)c1SCCOC(F)(F)F [Compound A106] | 5 (5=81 to 100%) | 4 (4=61 to 80%) | 3 (3=41 to 60%) | 5 (5=81 to 100%) | 5 (5=81 to 100%) | 5 (5=81 to 100%) | 2 (2=21 to 40%) | 5 (5=81 to 100%)
N#Cc1cccc(Oc2ncc(Cl)cn2)c1SCCOCC(F)(F)F [Compound A107] | 5 (5=81 to 100%) | 4 (4=61 to 80%) | 2 (2=21 to 40%) | 5 (5=81 to 100%) | 5 (5=81 to 100%) | 5 (5=81 to 100%) | 3 (3=41 to 60%) | 5 (5=81 to 100%)
N#Cc1cccc(Oc2ncc(Cl)cn2)c1S(=O)(=O)CCOCC(F)(F)F [Compound A108] | 1 (1=0 to 20%) | 1 (1=0 to 20%) | 2 (2=21 to 40%) | 4 (4=61 to 80%) | 1 (1=0 to 20%) | 1 (1=0 to 20%) | 1 (1=0 to 20%) | 5 (5=81 to 100%)
COc1cnc(Oc2cccc(C#N)c2S(=O)(=O)CCCC(F)(F)F)nc1 [Compound A112] | 1 (1=0 to 20%) | 1 (1=0 to 20%) | 2 (2=21 to 40%) | 2 (2=21 to 40%) | 1 (1=0 to 20%) | 1 (1=0 to 20%) | 3 (3=41 to 60%) | 3 (3=41 to 60%)
COc1cnc(Oc2cccc(C#N)c2SCCCC(F)(F)F)nc1 [Compound A113] | 3 (3=41 to 60%) | 2 (2=21 to 40%) | 3 (3=41 to 60%) | 5 (5=81 to 100%) | 4 (4=61 to 80%) | 2 (2=21 to 40%) | 3 (3=41 to 60%) | 5 (5=81 to 100%)
Cc1cnc(Oc2cccc(C#N)c2SCCCC(F)(F)F)nc1 [Compound A114] | 4 (4=61 to 80%) | 3 (3=41 to 60%) | 4 (4=61 to 80%) | 3 (3=41 to 60%) | 4 (4=61 to 80%) | 4 (4=61 to 80%) | 4 (4=61 to 80%) | 5 (5=81 to 100%)
Cc1cnc(Oc2cccc(C#N)c2S(=O)(=O)CCCC(F)(F)F)nc1 [Compound A115] | 4 (4=61 to 80%) | 3 (3=41 to 60%) | 4 (4=61 to 80%) | 4 (4=61 to 80%) | 4 (4=61 to 80%) | 3 (3=41 to 60%) | 5 (5=81 to 100%) | 5 (5=81 to 100%)
N#Cc1cccc(Oc2ncc(Cl)cn2)c1SCCCOC(F)(F)F [Compound A116, 3-(5-chloropyrimidin-2-yl)oxy-2-[3-(trifluoromethoxy)propylsulfanyl]benzonitrile] | 4 (4=61 to 80%) | 4 (4=61 to 80%) | 4 (4=61 to 80%) | 5 (5=81 to 100%) | 5 (5=81 to 100%) | 5 (5=81 to 100%) | 5 (5=81 to 100%) | 5 (5=81 to 100%)
N#Cc1cccc(Oc2ncc(Cl)cn2)c1S(=O)(=O)CCCOC(F)(F)F [Compound A117] | 4 (4=61 to 80%) | 4 (4=61 to 80%) | 3 (3=41 to 60%) | 5 (5=81 to 100%) | 4 (4=61 to 80%) | 5 (5=81 to 100%) | 5 (5=81 to 100%) | 5 (5=81 to 100%)
